Laboratory results reported in US20250333397A1 (REMIX THERAPEUTICS INC., priority 2021, published 2025).
Where two headings read alike, the source gives them in different places.

Key:
Format in all cases: cell-based, human
[1] = system: HTT mRNA; assay: RT-qPCR splicing assay, HTT canonical (CJ) and alternative (AJ) junction mRNA; details: Homo sapiens; for AC50: read-out: HTT AJ (AC50, increase in AJ mRNA)
In short: (§1)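 Cells: A673 (DMEM/10% FBS, plated 24 h before) or K562 (IMDM/10% FBS). Dosing: 11-pt 3-fold series, 10 uM top final, ≤0.25% DMSO, 24 h, 37 °C/5% CO2. Readout: RT-qPCR of CJ and AJ junctions, housekeeper-normalized, RQ = 2^(-ΔΔCt) vs DMSO.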

[2] = system: MYB mRNA; assay: RT-qPCR splicing assay, MYB canonical (CJ) and alternative (AJ) junction mRNA; details: Homo sapiens; for AC50: read-out: MYB AJ (AC50, increase in AJ mRNA)
In short: as §1

[3] = system: SMN2 mRNA; assay: RT-qPCR splicing assay panel, SMN2 canonical junction (CJ) mRNA; details: Homo sapiens
In short: as §1

[4] = system: Target C mRNA; assay: RT-qPCR splicing assay panel, Target C canonical junction (CJ) mRNA; details: Homo sapiens
In short: as §1

[5] = 24 h, Table 3A, A673 or K562 cells, 24 h treatment
[6] = 24 h, Table 3A, A673 or K562 cells, 24 h treatment, read-out: HTT CJ (IC50, decrease in CJ mRNA)
[7] = canonical junction (CJ) mRNA, RT-qPCR panel, Table 4A, read-out: HTT, decrease in CJ mRNA levels, IC50
[8] = 24 h, Table 3A, A673 or K562 cells, 24 h treatment, read-out: MYB CJ (IC50, decrease in CJ mRNA)
[9] = canonical junction (CJ) mRNA, RT-qPCR panel, Table 4A, read-out: MYB, decrease in CJ mRNA levels, IC50
[10] = canonical junction (CJ) mRNA, RT-qPCR panel, Table 4A, read-out: SMN2, decrease in CJ mRNA levels, IC50
[11] = canonical junction (CJ) mRNA, RT-qPCR panel, Table 4A, read-out: Target C, decrease in CJ mRNA levels, IC50
[12] = 24 h, Table 3B, A673 or K562 cells, 24 h treatment

Compound	AC50 [1, 5] [µM]	IC50 [1, 6] [µM]	IC50 [1, 7] [µM]	AC50 [2, 5] [µM]	IC50 [2, 8] [µM]	IC50 [2, 9] [µM]	IC50 [3, 10] [µM]	IC50 [4, 11] [µM]	AC50 [1, 12] [µM]	IC50 ([1]; 24 h, Table 3B, A673 or K562 cells, 24 h treatment, read-out: HTT CJ (IC50, decrease in CJ mRNA)) [µM]	IC50 ([1]; Table 4B, gene panel, read-out: HTT (IC50, decrease in CJ mRNA levels)) [µM]	AC50 [2, 12] [µM]	IC50 ([2]; 24 h, Table 3B, A673 or K562 cells, 24 h treatment, read-out: MYB CJ (IC50, decrease in CJ mRNA)) [µM]	IC50 ([2]; Table 4B, gene panel, read-out: MYB (IC50, decrease in CJ mRNA levels)) [µM]	IC50 ([3]; Table 4B, gene panel, read-out: SMN2 (IC50, decrease in CJ mRNA levels)) [µM]	IC50 ([4]; Table 4B, gene panel, read-out: Target C (IC50, decrease in CJ mRNA levels)) [µM]
Oc1cc(-c2cnc(C(F)(F)F)s2)c(F)cc1-c1ccc(N2CCC(NC3CCC3)C2)nn1 (stereo not drawn) [Compound 390]	> 10	> 10	> 10	> 10	> 10	> 10	1 to 10	> 10								
COc1cc(-c2cc(O)c(-c3ccc(N4CC[C@@H](N[C@H]5C[C@H](F)C5)C4)nn3)cc2F)cnn1 [Compound 232]	0.1 to 1	< 0.1	< 0.1	0.1 to 1	0.1 to 1	0.1 to 1	< 0.1	0.1 to 1								
Cn1ncc(-c2ccc(-c3ccc(N4CC[C@@H](NC(C)(C)C)C4)nn3)c(O)c2)cc1=O [Compound 297, 5-(4-{6-[(3R)-3-(tert-butylamino)pyrrolidin-1-yl]pyridazin-3-yl}-3-hydroxyphenyl)-2-methylpyridazin-3-one]	< 0.1	< 0.1	< 0.1	< 0.1	< 0.1	< 0.1	< 0.1	< 0.1								
Cc1ccc(-c2ccc(-c3ccc(N4CC[C@H](NC5CCC5)C4)nn3)c(O)c2)cn1 [Compound 281]	0.1 to 1	0.1 to 1	0.1 to 1	1 to 10	1 to 10	1 to 10	< 0.1	1 to 10								
CC1(NC2CCN(c3ccc(-c4cc(F)c(-c5cn[nH]c5)cc4O)nn3)C2)CC1 (stereo not drawn) [Compound 111, 4-fluoro-2-(6-{3-[(1-methylcyclopropyl)amino]pyrrolidin-1-yl}pyridazin-3-yl)-5-(1H-pyrazol-4-yl)phenol]	< 0.1	< 0.1	< 0.1	< 0.1	< 0.1	< 0.1	< 0.1	< 0.1								
Cc1nnc(-c2cc(O)c(-c3ccc(N4CC[C@H](NC5CCC5)C4)nn3)cc2F)s1 [Compound 358]	1 to 10	0.1 to 1	0.1 to 1	1 to 10	1 to 10	1 to 10	0.1 to 1	1 to 10								
COc1cc(-c2ccc(-c3ccc(OC4CC(C)(C)NC(C)(C)C4)nn3)c(O)c2)cnn1 [Compound 271]	< 0.1	< 0.1	< 0.1	0.1 to 1	< 0.1	< 0.1	< 0.1	< 0.1								
COc1cc(-c2ccc(-c3ccc(N4CC[C@H](N[C@H]5C[C@H](F)C5)C4)nn3)c(O)c2)ncn1 [Compound 426]	0.1 to 1	0.1 to 1	0.1 to 1	1 to 10	1 to 10	1 to 10	0.1 to 1	1 to 10								
Cc1nc2cc(O)c(-c3cnc(N4CC[C@H](NC(C)(C)C)C4)nn3)cc2o1 [Compound 809]									1 to 10	< 0.1	< 0.1	1 to 10	1 to 10	1 to 10	0.1 to 1	1 to 10
Cc1ncc(-c2ccc(-c3ccc(N4CC[C@@](C)(NC5CCC5)C4)nn3)c(O)c2)s1 [Compound 356]	< 0.1	< 0.1	< 0.1	0.1 to 1	0.1 to 1	0.1 to 1	< 0.1	0.1 to 1								
Cc1ncc(-c2cc(O)c(-c3ccc(N4CC[C@@H](CNC5CCC5)C4)nn3)cc2F)s1 [Compound 453]			< 0.1			1 to 10	< 0.1	1 to 10								
